# Reference: ChEMBL document CHEMBL1201862, “PubChem BioAssay data set” (2004)
#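 Where inhibition never reached the appropriate level, the endpoint shown equals the highest concentration tested. Otherwise, values were interpolated linearly from a five-concentration, 48-hour dose response in 96-well plates. Here, GI50 denotes the concentration required for 50% inhibition of growth.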 Active and inactive are the calls of the source. No stated cut-off is given here; in the data, active = GI50 up to about 1.1 µM and inactive = higher.
# What was measured:
# Assay in all cases: NCI tumour cell line growth inhibition, 48 h
# MOLT-4 = system: MOLT-4
# HCC 2998 = system: HCC 2998
# M14 = system: M14
# SF-539 = system: SF-539
# SN12C = system: SN12C
# OVCAR-5 = system: OVCAR-5
# UACC-257 = system: UACC-257
# UACC-62 = system: UACC-62
# SF-268 = system: SF-268
# U-251 = system: U-251
# EKVX = system: EKVX
# CCRF-CEM = system: CCRF-CEM
# A498 = system: A498
# NCI-H522 = system: NCI-H522
# HCT-116 = system: HCT-116
Compound,GI50 (MOLT-4),GI50 (HCC 2998),GI50 (M14),GI50 (SF-539),GI50 (SN12C),GI50 (OVCAR-5),GI50 (UACC-257),GI50 (UACC-62),GI50 (SF-268),GI50 (U-251),GI50 (EKVX),GI50 (CCRF-CEM),GI50 (A498),GI50 (NCI-H522),GI50 (HCT-116)
Cc1ccc2nc(NC(=O)C(=O)CC(=O)c3cccc4ccccc34)sc2c1,42.1 µM (inactive),39.2 µM (inactive),19.6 µM (inactive),24.7 µM (inactive),52 µM (inactive),> 100 µM (inactive),27.2 µM (inactive),25.6 µM (inactive),32.6 µM (inactive),22 µM (inactive),92 µM (inactive),30.8 µM (inactive),63.5 µM (inactive),,
O=C(C#Cc1ccccc1)Nc1ccccc1CC(c1c[nH]c2ccccc12)c1c[nH]c2ccccc12,3.33 µM (inactive),23.2 µM (inactive),15.6 µM (inactive),12.3 µM (inactive),8.83 µM (inactive),,23.8 µM (inactive),7.5 µM (inactive),25.4 µM (inactive),,12.3 µM (inactive),3.3 µM (inactive),,11.6 µM (inactive),
O=C1c2cccc3cc([N+](=O)[O-])cc(c23)C(=O)N1CCCN1CCN(CCCN2C(=O)c3cccc4cc([N+](=O)[O-])cc(c34)C2=O)CC1,0.027 µM (active),0.0625 µM (active),0.706 µM (active),0.313 µM (active),0.08 µM (active),1.65 µM (inactive),0.585 µM (active),0.0579 µM (active),,0.0248 µM (active),0.612 µM (active),0.0803 µM (active),0.272 µM (active),,< 0.01 µM (active)
O=C1CCC(=O)C12CCc1cccc(O)c12,,> 100 µM (inactive),> 100 µM (inactive),,> 100 µM (inactive),,,> 100 µM (inactive),> 100 µM (inactive),> 100 µM (inactive),> 100 µM (inactive),,,,
CCCOC(=O)C1CCC(=O)N1C(=O)C(C)Cl (stereo not drawn),> 100 µM (inactive),> 100 µM (inactive),> 100 µM (inactive),,> 100 µM (inactive),> 100 µM (inactive),> 100 µM (inactive),> 100 µM (inactive),> 100 µM (inactive),> 100 µM (inactive),> 100 µM (inactive),> 100 µM (inactive),> 100 µM (inactive),> 100 µM (inactive),> 100 µM (inactive)
O=C(O)CNCc1c2ccccc2[n+]([O-])c2ccccc12,31 µM (inactive),21.7 µM (inactive),> 100 µM (inactive),,73.6 µM (inactive),> 100 µM (inactive),> 100 µM (inactive),58.1 µM (inactive),43.8 µM (inactive),> 100 µM (inactive),> 100 µM (inactive),34.3 µM (inactive),> 100 µM (inactive),46.1 µM (inactive),20.2 µM (inactive)
CC1CN1P1(N2CC2C)=NP(N2CC2C)(N2CC2C)=NP(N2CC2C)(N2CC2C)=N1 (stereo not drawn),> 50 µM (inactive),> 50 µM (inactive),> 50 µM (inactive),> 50 µM (inactive),> 50 µM (inactive),,,,> 50 µM (inactive),> 50 µM (inactive),> 50 µM (inactive),> 50 µM (inactive),> 50 µM (inactive),> 50 µM (inactive),> 50 µM (inactive)
COc1ccc(OC)c(NC(=O)C2=C(C)NC(C)=C(C(=O)Nc3cc(OC)ccc3OC)C2c2ccco2)c1,27.7 µM (inactive),,> 100 µM (inactive),> 100 µM (inactive),> 100 µM (inactive),> 100 µM (inactive),,> 100 µM (inactive),> 100 µM (inactive),> 100 µM (inactive),> 100 µM (inactive),> 100 µM (inactive),> 100 µM (inactive),> 100 µM (inactive),> 100 µM (inactive)
COc1ccc(OC)c(/C=C2\CCc3ccccc3C2=O)c1,2.59 µM (inactive),2 µM (inactive),3.59 µM (inactive),2.6 µM (inactive),5.48 µM (inactive),4.14 µM (inactive),,1.76 µM (inactive),4.84 µM (inactive),3.3 µM (inactive),3.2 µM (inactive),2.33 µM (inactive),2.61 µM (inactive),1.77 µM (inactive),6.78 µM (inactive)
C/C=C(\C)C(=O)N1c2ccccc2CC1c1c(C)[nH]c2ccccc12 (stereo not drawn),19.9 µM (inactive),> 100 µM (inactive),39.3 µM (inactive),50.8 µM (inactive),> 100 µM (inactive),37.3 µM (inactive),25.2 µM (inactive),40.7 µM (inactive),,91.6 µM (inactive),71.1 µM (inactive),42.5 µM (inactive),> 100 µM (inactive),42.3 µM (inactive),86.9 µM (inactive)
CCOC(=O)c1c[nH]c2c(ccc3ncccc32)c1=O,> 100 µM (inactive),> 100 µM (inactive),> 100 µM (inactive),> 100 µM (inactive),> 100 µM (inactive),> 100 µM (inactive),> 100 µM (inactive),> 100 µM (inactive),> 100 µM (inactive),> 100 µM (inactive),> 100 µM (inactive),> 100 µM (inactive),> 100 µM (inactive),> 100 µM (inactive),> 100 µM (inactive)
C[C@]12CC[C@H](O)CC1=CC[C@@H]1C2CC[C@]2(C)C(=O)N(N)C(=O)CC12 (stereo partly drawn),> 100 µM (inactive),> 100 µM (inactive),> 100 µM (inactive),> 100 µM (inactive),> 100 µM (inactive),> 100 µM (inactive),> 100 µM (inactive),> 100 µM (inactive),> 100 µM (inactive),> 100 µM (inactive),> 100 µM (inactive),> 100 µM (inactive),> 100 µM (inactive),> 100 µM (inactive),> 100 µM (inactive)
CCOc1ccc(O)cc1[P+](c1ccccc1)(c1ccccc1)c1ccccc1,,2.82 µM (inactive),4.45 µM (inactive),3.83 µM (inactive),3.13 µM (inactive),2.66 µM (inactive),0.647 µM (active),3.79 µM (inactive),5.2 µM (inactive),2.54 µM (inactive),11.5 µM (inactive),1.56 µM (inactive),11.7 µM (inactive),1.14 µM (inactive),2.19 µM (inactive)
N/C(=C\c1ccc(OCc2ccccc2)c(OCc2ccccc2)c1[N+](=O)[O-])C(=O)O,> 100 µM (inactive),> 100 µM (inactive),> 100 µM (inactive),> 100 µM (inactive),> 100 µM (inactive),> 100 µM (inactive),> 100 µM (inactive),> 100 µM (inactive),> 100 µM (inactive),> 100 µM (inactive),> 100 µM (inactive),> 100 µM (inactive),> 100 µM (inactive),> 100 µM (inactive),> 100 µM (inactive)
COc1ccc(/C(Cl)=C/c2cc(OC)ccc2OC)cc1,49.9 µM (inactive),87.5 µM (inactive),63.8 µM (inactive),64.7 µM (inactive),56.4 µM (inactive),,> 100 µM (inactive),38.4 µM (inactive),58.2 µM (inactive),84.7 µM (inactive),> 100 µM (inactive),31.8 µM (inactive),92.9 µM (inactive),46.9 µM (inactive),48.8 µM (inactive)
COc1cc2c3c(c1OCc1ccccc1)NCCC3NCC2 (stereo not drawn),> 100 µM (inactive),> 100 µM (inactive),> 100 µM (inactive),> 100 µM (inactive),> 100 µM (inactive),> 100 µM (inactive),> 100 µM (inactive),> 100 µM (inactive),> 100 µM (inactive),> 100 µM (inactive),> 100 µM (inactive),> 100 µM (inactive),> 100 µM (inactive),> 100 µM (inactive),> 100 µM (inactive)
CCCCN(CCCC)CC(C(=O)Nc1ccc([N+](=O)[O-])cc1[N+](=O)[O-])/C(C)=N\NC(=S)NN (stereo not drawn),70 µM (inactive),> 100 µM (inactive),> 100 µM (inactive),> 100 µM (inactive),,> 100 µM (inactive),> 100 µM (inactive),> 100 µM (inactive),> 100 µM (inactive),> 100 µM (inactive),65.6 µM (inactive),49.4 µM (inactive),> 100 µM (inactive),25.5 µM (inactive),> 100 µM (inactive)
Cc1ccc(O)c(/N=N/c2ccc(S(=O)(=O)O)cc2)n1,> 100 µM (inactive),,> 100 µM (inactive),> 100 µM (inactive),> 100 µM (inactive),,,> 100 µM (inactive),> 100 µM (inactive),> 100 µM (inactive),21 µM (inactive),> 100 µM (inactive),> 100 µM (inactive),> 100 µM (inactive),> 100 µM (inactive)
COC(=O)CC(C(C(=O)OC)C(=O)OC)N1C(=O)OC(c2ccccc2)C1c1ccccc1 (stereo not drawn),> 100 µM (inactive),34 µM (inactive),> 100 µM (inactive),> 100 µM (inactive),> 100 µM (inactive),> 100 µM (inactive),> 100 µM (inactive),> 100 µM (inactive),> 100 µM (inactive),89.5 µM (inactive),> 100 µM (inactive),63.1 µM (inactive),> 100 µM (inactive),69.5 µM (inactive),95.9 µM (inactive)
Cc1c(O)c(=O)ccn1CCN,> 100 µM (inactive),> 100 µM (inactive),> 100 µM (inactive),,> 100 µM (inactive),> 100 µM (inactive),> 100 µM (inactive),> 100 µM (inactive),> 100 µM (inactive),> 100 µM (inactive),> 100 µM (inactive),> 100 µM (inactive),> 100 µM (inactive),> 100 µM (inactive),> 100 µM (inactive)
